Assay results: patent publication US20230279061A1, “ISOLATED PEPTIDE FOR A PEPTIDE COACERVATE, AND METHODS OF USE THEREOF” (NANYANG TECHNOLOGICAL UNIVERSITY, priority 2020, published 2023)
Where a SMILES comes first, the peptide text is derived from it. Where no end group is shown, it is not given here. The star is where a group is joined. X1 = O=C(OCCSSCCOC(=O)*)c1ccccc1; X2 = CC(=O)OCCSSCCOC(=O)*

Assays:
[1] = tested on: HepG2 cells; assay: MTT cytotoxicity assay; format: cell-based; settings: for cytotoxicity of coacervates with luciferase-encoding mRNA: optimal concentration, HepG2 (FIG. 10C); for cytotoxicity of peptide alone: free peptide, HepG2
Protocol: (§1) The cytotoxicity of the therapeutics-loaded or pristine peptide coacervates was evaluated by using the methylthiazolyldiphenyl-tetrazolium bromide (MTT) assay. Following literature protocols (Chang, H. et al., Nano Letters, 2017, 17, 1678; Sun, Y. et al. Biomat., 2017, 117, 77), 10^4 of HepG2 or HEK293 cells in 100 µL of media (DMEM, 10% FBS, antibiotics) were transferred into 96-wells plates and incubated for 24 hours. Then, the media were replaced with 100 µL of Opti-MEM containing therapeutics-loaded coacervates (various concentration of therapeutics, 1 mg/mL HBpep-SP) or various concentrations of pristine coacervate suspensions. After 4 hours of uptake, the media were removed and the cells were washed by PBS twice before adding 100 µL of media (DMEM, 10% FBS, antibiotics). The cells were incubated for another 20 hours before 10 µL of 5 mg/mL MTT dissolved in PBS was added. The media were removed after 4 hours of incubation with MTT, and the cells were washed by PBS twice. After that, 100 µL of DMSO per well was added for absorbance measurements at 570 nm using a microplate reader (Infinite M200 Pro, Tecan, Switzerland). The relative cell viability was calculated as: […]
(§2) where At, Ab, and Ac represent the absorbance of tested cells, control cells and no cell, respectively.

[2] = tested on: HEK293 cells; assay: MTT cytotoxicity assay; format: cell-based; settings: optimal concentration, HEK293 (FIG. 10D)
Protocol: as §1, §2

[3] = Optical/fluorescence microscopy of coacervates; format: physicochemical; settings: near-physiological conditions
Protocol: Optical and fluorescence microcopy images of HBpep-SP coacervates and fluorescence image of macromolecules-loaded HBpep-SP coacervates were taken using an invert fluorescence microscope (AxioObserver.Z1, Zeiss, Germany). Dynamic light scattering (DLS, ZetaPALS, Brookhaven, USA) system was employed to measure the size of pristine HBpep-SR coacervates and macromolecules-loaded HBpep-SR coacervates. The fresh prepared pristine or macromolecules-loaded coacervates (with or without 0.1 mg/mL of macromolecules, 1 mg/mL of modified peptides) was diluted into PBS with a volume ratio of 1 : 9.0 before the DLS test.

[4] = Turbidity measurement of phase separation (coacervation) at various pH; format: physicochemical
Text: The phase separation behavior of HBpep-K and HBpep-SR peptides at various pH was monitored turbidity measurements using a UV-Vis spectrometer (UV-2501PC, Shimadzu, Japan). The absorbance at 600 nm (A600) was used to calculate the relative turbidity (Lim, Z.W. et al., Bioconjugate Chem., 2018, 29, 2176) as: […]

[5] = tested on: HepG2 cells; assay: Delivery of proteins and peptides into cells (fluorescence microscopy); format: cell-based; settings: free form, not recruited in coacervates
Protocol: (§3) For protein delivery into cells, 10^5 of cells were suspended in 1 mL of Dulbecco’s modified Eagle medium (DMEM) supplemented with 10% of fetal bovine serum, 100 units/mL of penicillin and 100 µg/mL of streptomycin, and then transferred into […] culture dishes. After 24 hours of incubation at 37° C. with 5% of CO2, the media was replaced with 900 µL of Opti-MEM. Then, 100 µL of freshly prepared protein-loaded HBpep-SA or HBpep-SP coacervate suspensions (0.1 mg/mL of cargos, 1 mg/mL of modified peptides) were added into the media. After 4 hours of incubation, the media was removed and the cells were washed with PBS twice before adding 1 mL of fresh media (DMEM, 10% FBS, antibiotics). The cells were incubated for another 20 hours and then washed twice at pH 5.0 in phosphate buffer to remove any coacervates that had not entered the cells, before being imaged under the fluorescence microscope (AxioObserver.Z1, Zeiss, Germany).

[6] = tested on: HepG2 cells; assay: X-Gal staining of cells after β-Gal delivery; format: cell-based; settings: 24 hours
Protocol: as §3
To further confirm the versatility of the HBpep-SR peptide coacervate delivery system, β-Gal, a very high MW enzyme (MW = 430 kDa) was selected to be recruited into the HBpep-SP peptide coacervate. Intracellular delivery of β-Gal is challenging because of the difficulty in forming complexes with common nanocarriers owing to its high MW (Mitragotri, S. et al., Nat. Reviews Drug Disc., 2014, 13, 655).

Molecule: CC(=O)OCCSSCCOC(=O)NCCCC[C@H](NC(=O)[C@H](Cc1ccc(O)cc1)NC(=O)[C@@H]1CCCN1C(=O)CNC(=O)[C@H](Cc1c[nH]cn1)NC(=O)CNC(=O)[C@H](Cc1ccc(O)cc1)NC(=O)[C@@H](NC(=O)CNC(=O)[C@H](Cc1c[nH]cn1)NC(=O)CNC(=O)[C@H](Cc1ccc(O)cc1)NC(=O)[C@@H](NC(=O)CNC(=O)[C@H](Cc1c[nH]cn1)NC(=O)CN)C(C)C)C(C)C)C(=O)NCC(=O)N[C@@H](Cc1c[nH]cn1)C(=O)NCC(=O)N1CCC[C@H]1C(=O)N[C@@H](Cc1ccc(O)cc1)C(=O)NCC(=O)N[C@@H](Cc1c[nH]cn1)C(=O)NCC(=O)N[C@@H](CC(C)C)C(=O)N[C@@H](Cc1ccc(O)cc1)C(=O)N[C@@H](Cc1c[nH]c2ccccc12)C(=O)O [HBpep-SA] (H-GHGVYGHGVYGHGPYK(X2)GHGPYGHGLYW-OH)
- cytotoxicity of coacervates with luciferase-encoding mRNA [1]: neither HBpep-SA nor HBpep-SP peptide coacervates with luciferase-encoding mRNA caused cytotoxicity
- cytotoxicity of coacervates with luciferase-encoding mRNA [2]: neither HBpep-SA nor HBpep-SP peptide coacervates with luciferase-encoding mRNA caused cytotoxicity
- stability of coacervate microdroplets [3]: formed stable microdroplets at near-physiological conditions

Molecule: CC(C)C[C@H](NC(=O)CNC(=O)[C@H](Cc1c[nH]cn1)NC(=O)CNC(=O)[C@H](Cc1ccc(O)cc1)NC(=O)[C@@H]1CCCN1C(=O)CNC(=O)[C@H](Cc1c[nH]cn1)NC(=O)CNC(=O)[C@H](CCCCNC(=O)OCCSSCCOC(=O)c1ccccc1)NC(=O)[C@H](Cc1ccc(O)cc1)NC(=O)[C@@H]1CCCN1C(=O)CNC(=O)[C@H](Cc1c[nH]cn1)NC(=O)CNC(=O)[C@H](Cc1ccc(O)cc1)NC(=O)[C@@H](NC(=O)CNC(=O)[C@H](Cc1c[nH]cn1)NC(=O)CNC(=O)[C@H](Cc1ccc(O)cc1)NC(=O)[C@@H](NC(=O)CNC(=O)[C@H](Cc1c[nH]cn1)NC(=O)CN)C(C)C)C(C)C)C(=O)N[C@@H](Cc1ccc(O)cc1)C(=O)N[C@@H](Cc1c[nH]c2ccccc12)C(=O)O [HBpep-SP] (H-GHGVYGHGVYGHGPYK(X1)GHGPYGHGLYW-OH)
- cytotoxicity of coacervates with luciferase-encoding mRNA [1]: neither HBpep-SA nor HBpep-SP peptide coacervates with luciferase-encoding mRNA caused cytotoxicity
- cytotoxicity of coacervates with luciferase-encoding mRNA [2]: neither HBpep-SA nor HBpep-SP peptide coacervates with luciferase-encoding mRNA caused cytotoxicity
- stability of coacervate microdroplets [3]: formed stable microdroplets at near-physiological conditions

Molecule: AVPIAQK [Smac, AVPIAQK, reference compound]
- cytotoxicity of peptide alone [1]: negligible cytotoxicity

Molecule: GHGVY GHGVY GHGPY K GHGPY GHGLY W (GHGVYGHGVYGHGPYKGHGPYGHGLYW; HBpep derivative) [HBpep-K, HBpep with a single lysine residue inserted at position 16]
- phase state at neutral pH ([4]; neutral pH): reverts to the single phase
- pH at which the peptide phase separates ([4]; turbidity at various pH): 9.0 pH

Molecule: KLAKLAK KLAKLAK (KLAKLAKKLAKLAK) [PAD, proapoptotic domain peptide, reference compound]
- cytotoxicity of peptide alone [1]: negligible cytotoxicity

Molecule: lysozyme: Alexa Fluor 488-labeled lysozyme, cargo protein
- internalization / crossing of the cell membrane by free cargo [5]: neither lysozyme (FIGS. 8E, 8F) nor BSA (FIGS. 8G, 8H) were internalized by HepG2 cells

Molecule: β-Gal
- X-Gal staining (β-Gal activity in cells) [6]: no blue pigment formation
